{"source": "patent US20020037495A1", "about": "“High throughput screening for inhibitors of fatty acid, ergosterol, sphingolipid, or phospholipid synthesis in fungi” (priority 2000, published 2002)", "key": {"OLE1 promoter": {"test_system": "OLE1 promoter", "test": "OLE1 promoter-lacZ reporter induction (chemiluminescence)", "format": "cell-based, S. cerevisiae", "description": "(§1) The OLE1, YOL101c, and YGL039w promoters (along with their respective ATG translation start sites) each were, individually, flised to a lacZ reporter gene (which lacked an ATG translation start site) and introduced in the vector pRS415. The resulting reporter plasmids were then, separately, introduced into a multi-drug resistant yeast strain, thereby producing PL1, P41, and Ml, which are identical to each other except that PL1 carries the […], and M1 carries the YGL039w promoter (Millennium Pharmaceuticals, Inc., MMB#1495, 1497 and 1604, respectively). These yeast strains can be readily used to measure the level of activity of the OLE1, YOL101c, or YGL039w promoter by measuring expression of the lacZ gene. Enzymatic and colorimetric assays for measuring lacZ gene expression are well known in the art and can be used in the invention.\nFor example, the test compounds can be tested at concentrations of 25 μM and 100 μM. In a convenient high throughput screening method, the test compounds can be assayed in the wells of a multiple-well (e.g., 96-well) plastic plate (e.g., Packard, Inc. Cat. # 6005181), with each well containing a different test compound. Thus, one plate can contain the test compounds at a concentration of 25 μM, while another plate contains the test compounds at a concentration of 100 μM. Each well also contains up to 2.5% DMSO.\nCerulenin is used as a positive control in wells lacking a test compound. A stock solution of cerulenin (2,3-Epoxy-4-oxo-[…]) can be prepared to a concentration of 10 mg/ml in DMSO and stored at −20° C.\nInduction of OLE1 Promoter Activity: The yeast glycerol stocks described above are used to prepare fresh yeast cultures that are used in the screening assays. The cell suspension, if frozen, is thawed at 37° C., and 33 μl of the stock is added to 12 ml of SC-Leu medium. The culture then is incubated in a shaking Erlemneyer flask at 30° C. overnight (approximately 14-15 hours). The OD600 of the culture then is measured, with a culture having an OD600 of 0.05-0.15 being suitable for use. […] 1; if necessary, the culture can be diluted with SC-Leu medium to obtain the desired OD600. A 100 μI aliquot of the yeast culture then is added to each well of the 96-well plate containing a test compound, and the cultures are incubated at 30° C. for approximately 6 hours.\nTo assay for an increase in the activity of the OLE1 promoter, an increase in the level of the lacZ reporter gene expression is measured. A 100 μl aliquot of 2 X substrate buffer is added to each well of the plate. To produce a 100 ml sample of 2 X substrate buffer, the following components are mixed within 1 hour of use, and kept at room temperature: 4.0 ml of GALACTON-STAR™ substrate ((3-chloro-5-(4-methoxyspiro { 1,2-dioxetane-3,2′-(4′chloro)-tricyclo-[3.3.1.1 ^3,7] decan} -4-yl)phenyl-B-D-galactopyranoside); Tropix, Inc., Cat. #GS100), 20.0 ml of SAPHIRE II™ luminescence signal enhancer (Tropix, Inc., Cat. #LAX250), and 76 ml of Lysis Buffer (0.026% Na Deoxycholic acid, 0.053% CTAB, 265 mM NaCl, 395 mM HEPES, pH 7.5). The plates are incubated at room temperature for 45 minutes, before vortexing them for 30 seconds at a low to moderate speed.\nA chemiluminescent signal is produced by reaction of β-galactosidase with the substrate. Chemiluminescence can be measured using a TopCount-HTS, with the data mode set to measure […], and with a count time of 0.1 minute. Generally, chemiluminescence should be measured before significant signal decay occurs (i.e., within approximately 90 minutes of initiating the reaction).\nScreening plates containing 80,000 individual small molecule compounds (comprising a diversity file) were prepared at concentrations of 100 μM in 96-well plastic clear-bottom plates (Packard, Inc. Cat. # 6005181)."}, "[1]": {"biological_target": "T1, Saccharomyces cerevisiae FAS complex (Saccharomyces cerevisiae, UniProt P07149+P19097)", "T1 construct": "A FAS assay using partially purified S. cerevisiae FAS complex was used to measure NADPH oxidation; tissue Sigma; host or cells: yeast extract (Sigma), FAS complex partially purified after Stoops et al. 1978", "T1 sequence (P07149 whole entry)": "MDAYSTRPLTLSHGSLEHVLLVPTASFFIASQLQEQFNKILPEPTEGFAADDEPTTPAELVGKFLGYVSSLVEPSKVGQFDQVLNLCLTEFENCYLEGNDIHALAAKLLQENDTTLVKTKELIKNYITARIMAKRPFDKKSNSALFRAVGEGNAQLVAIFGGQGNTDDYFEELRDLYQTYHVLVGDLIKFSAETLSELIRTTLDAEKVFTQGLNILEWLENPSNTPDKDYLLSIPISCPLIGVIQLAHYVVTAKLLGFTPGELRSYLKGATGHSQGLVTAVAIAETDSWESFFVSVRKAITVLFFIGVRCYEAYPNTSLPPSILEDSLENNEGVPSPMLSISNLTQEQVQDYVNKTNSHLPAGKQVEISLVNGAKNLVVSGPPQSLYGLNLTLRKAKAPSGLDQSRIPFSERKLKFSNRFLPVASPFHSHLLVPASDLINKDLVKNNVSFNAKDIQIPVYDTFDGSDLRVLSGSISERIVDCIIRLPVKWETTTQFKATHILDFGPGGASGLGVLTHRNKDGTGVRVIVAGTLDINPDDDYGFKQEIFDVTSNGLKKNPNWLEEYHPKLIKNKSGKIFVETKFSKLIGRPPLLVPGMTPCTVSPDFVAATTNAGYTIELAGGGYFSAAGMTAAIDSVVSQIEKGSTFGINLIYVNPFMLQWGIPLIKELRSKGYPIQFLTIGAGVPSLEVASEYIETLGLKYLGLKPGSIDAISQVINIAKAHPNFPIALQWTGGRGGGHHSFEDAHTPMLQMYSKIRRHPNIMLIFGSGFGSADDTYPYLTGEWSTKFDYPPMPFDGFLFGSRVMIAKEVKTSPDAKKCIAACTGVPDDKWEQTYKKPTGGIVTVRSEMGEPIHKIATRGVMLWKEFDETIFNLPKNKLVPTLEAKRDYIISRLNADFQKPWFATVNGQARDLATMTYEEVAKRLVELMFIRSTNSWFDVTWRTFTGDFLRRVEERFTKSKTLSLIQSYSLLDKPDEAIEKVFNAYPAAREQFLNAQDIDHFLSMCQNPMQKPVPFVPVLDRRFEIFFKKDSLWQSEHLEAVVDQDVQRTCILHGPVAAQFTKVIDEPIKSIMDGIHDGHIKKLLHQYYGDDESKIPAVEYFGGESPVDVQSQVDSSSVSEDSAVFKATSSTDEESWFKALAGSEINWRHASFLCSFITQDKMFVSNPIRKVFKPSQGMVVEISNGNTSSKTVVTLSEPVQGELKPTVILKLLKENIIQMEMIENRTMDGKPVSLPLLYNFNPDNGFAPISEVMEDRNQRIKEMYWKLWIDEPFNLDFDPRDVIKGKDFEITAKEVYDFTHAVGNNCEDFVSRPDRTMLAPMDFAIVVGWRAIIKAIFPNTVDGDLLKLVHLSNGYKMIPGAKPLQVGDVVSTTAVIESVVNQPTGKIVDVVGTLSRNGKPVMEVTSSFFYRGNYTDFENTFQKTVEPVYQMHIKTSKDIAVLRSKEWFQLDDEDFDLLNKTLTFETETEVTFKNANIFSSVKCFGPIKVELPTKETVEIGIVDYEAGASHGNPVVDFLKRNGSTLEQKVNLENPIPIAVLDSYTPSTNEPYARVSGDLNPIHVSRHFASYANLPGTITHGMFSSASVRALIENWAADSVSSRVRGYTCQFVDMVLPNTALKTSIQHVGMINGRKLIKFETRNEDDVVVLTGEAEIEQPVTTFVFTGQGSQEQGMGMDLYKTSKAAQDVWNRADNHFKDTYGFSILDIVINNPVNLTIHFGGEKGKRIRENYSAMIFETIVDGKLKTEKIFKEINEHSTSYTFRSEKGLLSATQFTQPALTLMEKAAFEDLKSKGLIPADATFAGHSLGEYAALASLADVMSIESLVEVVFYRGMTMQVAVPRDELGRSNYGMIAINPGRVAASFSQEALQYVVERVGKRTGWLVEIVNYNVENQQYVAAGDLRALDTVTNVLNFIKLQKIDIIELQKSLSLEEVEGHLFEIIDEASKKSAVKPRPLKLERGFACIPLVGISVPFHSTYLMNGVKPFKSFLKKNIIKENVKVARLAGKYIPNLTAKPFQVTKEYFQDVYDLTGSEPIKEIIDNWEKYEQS", "T1 sequence (P19097 whole entry)": "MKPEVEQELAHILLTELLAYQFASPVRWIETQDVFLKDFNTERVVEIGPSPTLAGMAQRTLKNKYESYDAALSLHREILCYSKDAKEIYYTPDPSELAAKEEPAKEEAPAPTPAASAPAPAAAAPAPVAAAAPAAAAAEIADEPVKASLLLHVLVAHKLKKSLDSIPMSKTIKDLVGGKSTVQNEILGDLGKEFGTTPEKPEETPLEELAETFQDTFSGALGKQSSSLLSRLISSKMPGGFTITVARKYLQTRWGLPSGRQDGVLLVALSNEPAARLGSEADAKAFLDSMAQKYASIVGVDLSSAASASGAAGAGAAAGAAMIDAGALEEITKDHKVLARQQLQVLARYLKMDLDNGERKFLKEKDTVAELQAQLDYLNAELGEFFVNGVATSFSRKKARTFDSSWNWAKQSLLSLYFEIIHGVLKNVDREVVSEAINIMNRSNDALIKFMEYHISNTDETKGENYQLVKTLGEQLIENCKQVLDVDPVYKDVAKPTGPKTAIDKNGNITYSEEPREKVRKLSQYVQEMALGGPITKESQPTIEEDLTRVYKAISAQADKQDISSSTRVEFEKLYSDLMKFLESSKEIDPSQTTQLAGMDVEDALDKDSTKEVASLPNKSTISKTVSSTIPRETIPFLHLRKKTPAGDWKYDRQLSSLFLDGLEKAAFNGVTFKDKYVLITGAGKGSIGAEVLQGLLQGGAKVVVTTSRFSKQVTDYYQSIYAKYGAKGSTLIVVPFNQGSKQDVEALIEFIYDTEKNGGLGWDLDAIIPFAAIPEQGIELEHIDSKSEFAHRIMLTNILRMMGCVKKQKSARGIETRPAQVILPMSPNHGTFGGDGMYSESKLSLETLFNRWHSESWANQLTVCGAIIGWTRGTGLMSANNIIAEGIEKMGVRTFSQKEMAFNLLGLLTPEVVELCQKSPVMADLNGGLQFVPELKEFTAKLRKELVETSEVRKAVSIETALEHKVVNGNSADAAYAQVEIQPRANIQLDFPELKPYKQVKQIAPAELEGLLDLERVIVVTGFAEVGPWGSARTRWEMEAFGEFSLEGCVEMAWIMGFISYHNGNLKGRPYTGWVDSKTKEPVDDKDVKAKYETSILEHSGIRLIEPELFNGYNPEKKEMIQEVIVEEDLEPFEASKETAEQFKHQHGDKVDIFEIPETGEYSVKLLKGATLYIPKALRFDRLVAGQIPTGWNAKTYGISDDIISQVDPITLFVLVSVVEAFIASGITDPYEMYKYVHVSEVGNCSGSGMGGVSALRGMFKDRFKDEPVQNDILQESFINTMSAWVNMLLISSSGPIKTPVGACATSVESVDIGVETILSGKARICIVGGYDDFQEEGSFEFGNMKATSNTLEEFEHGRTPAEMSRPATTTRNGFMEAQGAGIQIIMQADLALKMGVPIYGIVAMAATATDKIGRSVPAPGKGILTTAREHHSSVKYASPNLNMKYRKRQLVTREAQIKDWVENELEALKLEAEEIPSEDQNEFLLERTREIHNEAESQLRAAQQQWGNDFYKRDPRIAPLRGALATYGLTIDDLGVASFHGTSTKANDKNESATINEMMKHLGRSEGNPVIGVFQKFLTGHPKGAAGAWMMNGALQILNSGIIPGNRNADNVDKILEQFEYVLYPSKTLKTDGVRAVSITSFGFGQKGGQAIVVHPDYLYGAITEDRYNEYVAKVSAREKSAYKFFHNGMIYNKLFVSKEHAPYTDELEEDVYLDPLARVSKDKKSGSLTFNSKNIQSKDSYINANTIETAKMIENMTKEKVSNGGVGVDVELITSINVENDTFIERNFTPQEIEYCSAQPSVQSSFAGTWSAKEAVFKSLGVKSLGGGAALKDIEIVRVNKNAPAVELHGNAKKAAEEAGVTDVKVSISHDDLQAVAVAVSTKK", "test": "FAS assay measuring NADPH oxidation", "format": "biochemical", "protocol": "In another inhibition assay, Saccharomyces cerevisiae FAS complex was obtained from a yeast extract (Sigma) and assayed as described in (Stoops et al., J.B.C., 253:4464-4475, 1978). A crude preparation of Candida albicans FAS can be prepared from a 1-21 YPD overnight culture of SC5314 following essentially the protocol used for S. cerevisiae FAS, with the exception that the last purification step by gel filtration was omitted. The assay cocktail contains: 0.14 mM NADPH, 0.36 mM acetyl-CoA, 0.18 mM malonyl-CoA, 5 mM EDTA, 8 mM DTT, 0.1 M MES pH 6, 100 μM compound in 1% DMSO, and fungal FAS extract. Changes in NADPH oxidation are followed for 1 hour using a BMG fluorimeter set at 340 nm excitation and 460 nm emission. The inhibition of fatty acid synthesis in these assays is expressed as a percent activity compared to the one obtained using 1% DMSO.\nA FAS assay using partially purified S. cerevisiae FAS complex was used to measure NADPH oxidation as described herein."}, "YOL101c promoter": {"test_system": "YOL101c promoter", "test": "YOL101c promoter-lacZ reporter induction (chemiluminescence)", "format": "cell-based, S. cerevisiae", "description": "as §1"}, "[2]": {"test_system": "OLE1, YOL101c, and YGL039w genes", "test": "Transcriptional profiling (TxP) of yeast treated with FAS inhibitor", "format": "cell-based", "settings": "0.1, 0.2 and 0.3 μM; 3 and 5 hour time points", "procedure": "Logarithmically growing hypersensitive yeast MMB 1489 (Δpdr5 Δsnq2) cells were treated with cerulenin at 0.5 X, 1 X, and 1.5 X the MIC value (0.1, 0.2 and 0.3 μM) and cells were harvested at 1, 3 and 5 hour time points following drug treatment. Total RNA was obtained from cell pellets treated with 0.1, 0.2, and 0.3 μM cerulenin. […] Following hybridization, the data was normalized, filtered and analyzed."}, "[3]": {"test_system": "S. cerevisiae MMB1493 or C. albicans SC5314 or Y01.06", "test": "14C-acetate incorporation into fatty acids", "format": "cell-based", "settings": "10 minutes preincubation, 10 minutes with 14C-acetate, 30° C.", "protocol": "Generally, ^14C-acetate incorporation is measured essentially as described in Kuhajda et al., P.N.A.S., 91:6379-6383, 1994. Logarithmically growing cells (4^8 cells of S. cerevisiae MMB1493 or C. albicans SC5314 or Y01.06) were preincubated with 100 μM compounds in DMSO for 10 minutes at 30° C. ^14C-Acetate was added to 20 μCi, mixed and further incubated for 10 minutes at 30° C. Fatty acids were recovered by alkaline ethanolysis (7.5% KOH in 90% ethanol, 1 00ul) at 50° C. for 1 hour, followed by acidification with concentrated HCl (15 μl) and petroleum ether extraction. The radioactivity in the organic layer was counted using a Beckman LS650 multipurpose scintillation counter using Betamax (ICN) scintillation fluid. Cerulenin was used as control at 100 μM; at this concentration 80-90% inhibition was routinely observed in this assay."}, "S. cerevisiae mdr mutant": {"test_system": "S. cerevisiae mdr mutant", "test": "Fungal growth inhibition (OD600) / MIC testing", "format": "cell-based", "settings": "for MIC: Saccharomyces cerevisiae", "protocol": "Assay of Fungal Growth Inhibition: If desired, the ability of each candidate compound to inhibit fungal growth can readily be measured as follows. After incubating the yeast cultures and test compounds for 6 hours in the 96-well plates, as described above, the OD600 of the plates is measured (e.g., using a Wallac/Victor 2 plate reader). The OD600 can be measured before or after the above-described chemiluminescent assay. A test compound that decreases the OD600 of a yeast culture, relative to the OD600 obtained in the absence of the candidate compound, is an antifungal agent.\nFor the assay, the reporter strains were grown at 30° C. overnight (approximately 14-15 hours) in SC-Leu medium. Typically, the cultures were grown to an OD600 of 0.1, though cells at OD600 of 0.05-0.15 were also appropriate. Plates were then seeded with a 100 μl aliquot of the yeast culture and incubated at 30° C. for approximately 6 hours. To identify antifungal compounds (those affording growth inhibition), the OD600 was measured using a Wallac/Victor 2 plate reader.\nThe library of 80,000 small molecule compounds was screened for FAS inhibitors at concentration of 100 μM with the Pole1-lacZ reporter strain. Hits were defined as compounds that afforded 2-fold Pole1-lacZ induction. The primary screen yielded 850 hits (1.1% hit rate) as defined above. Among these, 182 were deemed structurally acceptable and subjected to retesting using the same Pole1-IacZ induction assay and an antifungal assay by growth inhibition in MIC testing."}, "YGL039w promoter": {"test_system": "YGL039w promoter", "test": "YGL039w promoter-lacZ reporter induction", "format": "cell-based, S. cerevisiae", "description": "as §1\nHaving determined that antiflingal agents like cerulenin increase the activity of the OLE1 and YOL101 c promoters, yeast strains containing one or both promoters each operably linked to a reporter gene (e.g., lacZ) can be used in a method for determining whether a test compound is an inhibitor of fungal fatty acid synthesis and is thus a candidate antifungal agent. Such a method can be carried out as follows. […]"}}, "note": "Like-named read-outs stand apart in the source and are kept apart here."}
{"smiles": "C/C=C/C/C=C/CCC(=O)[C@H]1O[C@H]1C(N)=O", "note": "[Cerulenin, 2,3-Epoxy-4-oxo-7,1-dodecadienamide]", "values": [{"measurement": "lacZ gene expression, OLE1 promoter strain", "setting": "OLE1 promoter", "result": "increase in lacZ gene expression"}, {"measurement": "induction of promoter activity", "setting": "OLE1 promoter; 0.2 μg/ml", "result": "partial induction of promoter activity"}, {"measurement": "induction of promoter activity", "setting": "OLE1 promoter; 0.9 μM", "result": 50, "unit": "%"}, {"measurement": "increase in the level of chemiluminescence relative to uninduced control", "setting": "OLE1 promoter; 2.0 μg/ml", "result": 100, "unit": "fold"}, {"measurement": "induction of promoter activity", "setting": "OLE1 promoter; 2.0 μg/ml", "result": "maximum induction of promoter activity"}, {"measurement": "induction of promoter activity", "setting": "OLE1 promoter; 9 μM", "result": "maximum induction of promoter activity"}, {"measurement": "increase in chemiluminescence", "setting": "OLE1 promoter; 9 μM, OLE1 promoter strain", "result": "100-300 fold"}, {"measurement": "OLE1 Fold-induction (100 μM)", "setting": "OLE1 promoter; 100 μM, Pole1-lacZ reporter strain", "result": 479, "unit": "Fold"}, {"measurement": "inhibition at 100 µM", "setting": "[1]; 100 μM, within the first 30 minutes, read-out: inhibition of fatty acid synthesis (NADPH oxidation)", "result": "80 to 90", "unit": "%"}, {"measurement": "inhibition at 100 µM", "setting": "[1]; read-out: FAS-NADPH ox % Inhibition @ 100 μM", "result": 81, "unit": "%"}, {"measurement": "IC50", "setting": "[1]; read-out: FAS-NADPH ox IC50", "result": "700 to 1300", "unit": "nM"}, {"measurement": "lacZ gene expression, YOL101c promoter strain", "setting": "YOL101c promoter", "result": "increase in lacZ gene expression"}, {"measurement": "increase in chemiluminescence", "setting": "YOL101c promoter; 9 μM, YOL101c promoter strain", "result": "100-300 fold"}, {"measurement": "gene induction of OLE1, YOL101c and YGL039w (mRNA)", "setting": "[2]", "result": "most highly induced genes"}, {"measurement": "inhibition at 100 µM", "setting": "[3]", "result": "80 to 90", "unit": "%"}, {"measurement": "inhibition of fungal growth", "setting": "S. cerevisiae mdr mutant; 0.2 μg/ml", "result": "no detectable inhibition of fungal growth"}, {"measurement": "inhibition of fungal growth", "setting": "S. cerevisiae mdr mutant; 0.9 μM", "result": "no detectable inhibition of fungal growth"}, {"measurement": "inhibition of fungal growth", "setting": "S. cerevisiae mdr mutant; 2.0 μg/ml", "result": "maximum inhibition of fungal growth"}, {"measurement": "inhibition of fungal growth", "setting": "S. cerevisiae mdr mutant; 9 μM", "result": "maximum inhibition of fungal growth"}, {"measurement": "MIC", "setting": "S. cerevisiae mdr mutant", "result": "0.2 to 0.9", "unit": "µM"}, {"measurement": "MIC", "setting": "S. cerevisiae mdr mutant; read-out: MIC value", "result": 0.2, "unit": "µM"}, {"measurement": "lacZ gene expression, YGL039w promoter strain", "setting": "YGL039w promoter", "result": "increase in lacZ gene expression"}]}
{"smiles": "Clc1ccc(COC(Cn2ccnc2)c2ccc(Cl)cc2Cl)c(Cl)c1", "note": "(stereo not drawn) [miconoazole]", "values": [{"measurement": "induction of the OLE1 reporter", "setting": "OLE1 promoter", "result": "induce this reporter"}]}
{"smiles": "CCCCCCC(=O)CCCCCC/C=C/C[C@@H](O)[C@H](O)[C@@](N)(CO)C(=O)O", "note": "[myriocin]", "values": [{"measurement": "induction of the OLE1 reporter", "setting": "OLE1 promoter", "result": "induce this reporter"}]}
